The results in this text go back to patent US12653873B2, “Peptide antigens and uses thereof” (HUMANITAS MIRASOLE S.P.A., priority 2019, dated 2026).

Common to all, as to format: in vivo, mouse
The test system of one experiment is TAC-operated mice. In words: Oral tolerance protocol followed by induction of Heart Failure via TAC, echocardiography. The following applies: oral gavage 0.8 mg per day of each peptide for 4 days, TAC on day 7; 8 weeks after surgery; vs PBS alone. The protocol:
To assess preventive protection potential of oral tolerance with the newly identified peptides from the development of Heart Failure, the inventors pursued an oral tolerance protocol to induce cardio-specific tolerance for the peptides, followed by active induction of Heart Failure via TAC.
Briefly, C57BL6/J 8-week-old male mice were screened at baseline via echocardiography. Each mouse was orally fed with 0.8 mg of each peptide from group 4: the peptide of SEQ ID NO. 1 (14-3-3 protein), the peptide of SEQ ID NO. 5 (Snrpd1 protein), and the peptide of SEQ ID NO. 14 (Atp5o protein) (i.e. 0.8 mg per day of each peptide, thus 2.4 mg/day in total), diluted in 600 μl of Phosphate Buffered-Saline (PBS) or plain PBS (as control) via oral feeding (oral gavage) for 4 days in a row. Three days after the end of this procedure, on day 7, the mice underwent TAC surgery, to experimentally induce Heart Failure. Echocardiographies were performed on both groups of mice to monitor their cardiac functionality at 2, 4 and 8 weeks after TAC-surgery. […] Data were plotted as mean±SEM, (n=8-11). Two-way ANOVA and Tukey's multiple comparison test with matching subjects. ** p<0.01, ***p<0.001.

Experiment [1] has as its system C57BL6/J mice. In words: Immunization of healthy mice with pooled peptides in CFA/IFA, echocardiography. The note with it: echocardiography at 2, 5 and 9 weeks after first subcutaneous injection; 100 μg of each peptide in CFA day 0, IFA boost day 21; vs CTR- (only CFA). The protocol:
In order to validate the functional relevance of identified antigens recognized by T cells driving HF, the inventors conducted the experiments as described below and schematically represented in FIG. 5.
Briefly, C57BL6/J 8-week-old male mice were screened, via echocardiography, at baseline for heart functionality and randomly divided into three experimental groups. Mice belonging to the negative control group (CTR−, only CFA) were injected subcutaneously (immunized) with 100 μl Complete Freud's Adjuvant (CFA) at day 0 and boosted with 100 μl of Incomplete Freud's Adjuvant (IFA) on day 21, without any antigen. […] Heart functionality of all mice was analyzed via echocardiography at 2, 5 and 9 weeks after the first subcutaneous injection.
The immunization experiments of healthy mice with peptides derived from beta-adrenergic receptor and from 14-3-3, Snrpd1, and Atp5o lead to cardiac dysfunction. […] Left ventricle functionality was measured as % FS (FIG. 6A) and Ejection Fraction (% EF) (FIG. 6B), which measure the volumetric capacity of the left ventricle to pump blood. […]

The test system of experiment [2] is Aldehyde dehydrogenase (ALDH). In words: Aldefluor FACS analysis of dendritic cells from mesenteric lymph nodes after oral tolerance induction. The note with it: eight weeks after oral tolerance induction in TAC-operated mice; vs PBS alone. The protocol:
Briefly, eight weeks after oral tolerance induction in TAC-operated mice, mesenteric lymph nodes (MLN) were collected and dendritic cells (DC) were isolated for FACS analysis. Aldehyde dehydrogenase (ALDH) production of retinoic acid from the DC was measured via Aldefluor Fluorescent dye. FACS analysis of DC isolated from MLN of mice fed with the peptides of SEQ ID NO. […] Retinoic acid produced by tolerogenic DC contributes to Regulatory T cell (Treg) generation, essential for tolerance induction. […] Data are plotted as mean±SEM, (n=7-8). Unpaired t-test. * p<0.05.
On the technique in general: Flow cytometry measures light scatter and fluorescence of single cells or particles in a stream.

The subject of experiment [3] is C57BL6/J mice. Nature of the experiment: Immunization of healthy mice with single peptides in CFA/IFA, echocardiography. The note with it: echocardiography at 2, 5 and 9 weeks after first subcutaneous injection; 100 μg peptide in CFA day 0, IFA boost day 21; vs CTR-. On the procedure: C57BL6/J 8-week-old male mice were screened at baseline for heart functionality, via echocardiography, and randomly divided into 5 experimental groups. Mice belonging to control group (CTR−, only CFA) were injected subcutaneously (immunized, but without antigen: negative control) with 100 μl Complete Freud's Adjuvant (CFA) at day 0 and boosted with 100 μl of Incomplete Freud's Adjuvant (IFA) on day 21. Mice belonging to group 3 (CTR+) were injected subcutaneously (immunized, known antigen: positive control) with 100 μg of each of the three peptides (SEQ ID NOs. 15-17) derived from beta-adrenergic receptor and listed in the Table of FIG. 4, emulsified in Complete Freud's Adjuvant (CFA) at day 0 and boosted with 100 μg of the three peptides emulsified in Incomplete Freud's Adjuvant (IFA) on day 21. Mice belonging to group 4_A (Peptide 4_A) were injected subcutaneously (immunized) with 100 μg of the peptide of SEQ ID NO. 1, derived from 14-3-3 protein, emulsified in Complete Freud's Adjuvant (CFA) at day 0 and boosted with 100 μg of each of the three peptides emulsified in Incomplete Freud's Adjuvant (IFA) on day 21. Mice belonging to group 4_B (Peptide 4_B) were injected subcutaneously (immunized) with 100 μg of the peptide of SEQ ID NO. 5, derived from Snrpd1 protein, emulsified in Complete Freud's Adjuvant (CFA) at day 0 and boosted with 100 μg of each of the three peptides emulsified in Incomplete Freud's Adjuvant (IFA) on day 21. Mice belonging to group 4_C (Peptide 4_C) were injected subcutaneously (immunized) with 100 μg of the peptide of SEQ ID NO. 14, derived from Atp5o protein, emulsified in Complete Freud's Adjuvant (CFA) at day 0 and boosted with […] of each of the three peptides emulsified in Incomplete Freud's Adjuvant (IFA) on day 21. On day 0 and day 2, all the mice were intraperitoneally injected with 200 ng of Pertussis Toxin. Heart functionality of all mice was analyzed via echocardiography at 2, 5 and 9 weeks after the first subcutaneous injection. In FIG. 7, the results of echocardiography analysis of cardiac functionality parameters % FS and % EF of C57BL6/J mice immunized with the peptide of SEQ ID NO. 1 (14-3-3 protein), the peptide of SEQ ID NO. 5 (Snrpd1 protein), or the peptide of SEQ ID NO. 14 (Atp5o protein) are shown. […] Data are plotted as mean±SEM, (n=4-6). Two-way ANOVA and Tukey's multiple comparison test with matching subjects. * p<0.05, ** p<0.01, ***p<0.001.

As for “Group 4: combination of the three peptides of SEQ ID NOs. 1, 5 and 14, derived from murine 14-3-3, Snrpd1 and Atp5o proteins (chain 1 LGLALNFSVFYYEIL; chain 2 EPVQLETLSIRGNNIRYFILPDSLP; chain 3 LTANLMNLLAENGRL; listed as Homo sapiens, listed as Mus musculus)”, in the experiment on TAC-operated mice, the “cardiac functionality, % EF” value is “significantly better cardiac functionality” and the “cardiac functionality, % FS” value is “significantly better cardiac functionality”. Moreover, in the experiment with C57BL6/J mice [1], the “cardiac functionality, % FS” value is listed as “significant reduction of cardiac functionality” and the “cardiac functionality, Ejection Fraction (% EF)” value was “significant reduction of cardiac functionality”. In experiment [2], the “ALDH activity of DC isolated from MLN” value is reported as “significant increase in ALDH activity”, the “mean fluorescence intensity (MFI) of Aldefluor dye in DC” value is listed as “significant increase” and the “percentage of ALDH positive DC” value is reported as “significant increase”.
As for “Peptide 4_A: peptide of SEQ ID NO. 1, derived from 14-3-3 protein (LGLALNFSVFYYEIL; listed as Homo sapiens)”, in the experiment on C57BL6/J mice [3], the “% EF” value is listed as “significantly reduced” and the “% FS” value is “significantly reduced”.
Turning to “Peptide 4_B: peptide of SEQ ID NO. 5, derived from Snrpd1 protein (EPVQLETLSIRGNNIRYFILPDSLP; listed as Homo sapiens)”, in the experiment with C57BL6/J mice [3], the “% EF” value was “significantly reduced” and the “% FS” value was “significantly reduced”.
Turning to “Peptide 4_C: peptide of SEQ ID NO. 14, derived from mouse Atp5o protein (LTANLMNLLAENGRL; listed as Mus musculus)”, in the experiment on C57BL6/J mice [3], the “% EF” value is listed as “significantly reduced” and the “% FS” value is on record as “significantly reduced”.
